# Test results as given in paper PMC10005301, “Prediction of the n-Octanol/Water Partition Coefficients of Basic Compounds Using Multi-Parameter QSRR Models Based on IS-RPLC Retention Behavior in a Wide pH Range” (Molecules, 2023).
# Like-named read-outs stand apart in the source and are kept apart here.
# Key:
# [1] = Source text: (§1) The retention behavior of the 42 basic compounds (Table 1) were investigated at different ratios of methanol (φ = 0.7–0.1, the interval was 0.1 or 0.05 based on the retention of the investigated solutes). The logk values were plotted versus φ for each solute at pH 7.0, pH 8.0, pH 9.0, and pH 10.0. […] The logD values of the model compounds and verification compounds calculated using Equation (S3) based on the logP and pH values are also listed in Table 1.
# (§2) At each pH, the retention time (tR) of every analyte was determined for at least four different volume fractions (φ) of methanol. All the tR values of the solutes were obtained by averaging the results of at least three independent injections. The tR value was corrected using dual-point retention time correction (DP-RTC). For a detailed description of the process, refer to our previous work. For the different hydrophobicities of the studied compounds, benzene, toluene, and benzyl alcohol were used as anchor compounds in the DP-RTC method. The dead time t0 was determined using uracil. For each solute, the logarithm of k was plotted against φ, and logkw was obtained using the Equation (S1). The logD values of the model compounds were calculated using Equation (S3), and the logD–logkw models were established with Equation (S4). The statistical analysis for the regression model was accomplished using Origin 9.4. […]
# (§3) Where, k is the capacity factor, φ is the volume fraction of organic modifier in the mobile phase, and S is the constant obtained by linear regression in the equations. […]
# and logkw, which is usually called Collander equation [25 ]. lo g lo g wPm k n= + (S2)
# Where, m and n are constants obtained by linear regression.
# The Eqs. (S1) and (S2) are the basis for the determination of logP by revered- phase liquid chromatography (RPLC) method. For dissociative solutes, it has been confirmed by many studies that the logD calibrated from logP has a better linear correlation with logkw than logP.
# For basic compounds, the logD value can be calibrated from Eq. (S3), and the Collander equation can be rewritten into Eq. (S4). log log( )D − −+ −+= + ++P […]
# lo g ' lo g 'Dm k n= +w (S4)
# Where, pKa1, pKa2 , … p Kan are the dissociation constants of basic compounds of corresponding acids in the mobile phase, pH is the pH value of mobile phase, m′ and n′ are fitting parameters. Han et al. pointed out that although mobile phase pH and pKa of solutes will change along with the varied organic modifier fraction, the difference between a couple of relevant pH and pKa is a constant. Therefore, the used pH and pKa in this paper were both the values obtained at 100% aqueous phase. […]
# [2] = IS-RPLC retention on silica-based C18 column, logkw by linear solvent strength model; type: physicochemical
# Description: as §1
# The column temperature was set at 30 °C. Methanol and 20 mmol/L ammonium phosphate buffer (pH = 7.0, 8.0, 9.0, 10.0) was used as the mobile phase to perform isocratic elution. The injection volume was 10 µL and the detection wavelength for each eluted compound was set at its optimum absorption wavelength.
# as §2, §3
# The Eqs. (S1) and (S2) are the basis for the determination of logP by revered- phase liquid chromatography (RPLC) method. For dissociative solutes, it has been confirmed by many studies that the logD calibrated from logP has a better linear correlation with logkw than logP. […]
# [3] = set-up: method as in UFZ-LSER database; settings: hydrogen bonding parameter B; ref UFZ-LSER database; cited from earlier work
# [4] = ref database module of ACD/Labs software, cited from earlier work
# [5] = ref database module of ACD/Labs software; cited from earlier work
# physchem = test: physchem
# Description: Multi-parameter QSRR models including logD, logkw, ne, A, and B were established using the multiple linear regression (MLR) method. In the process of linear fitting, ne, A, B, and their different combinations were introduced to optimize the models.
# The logD values reported in the literature for these four compounds were calculated using Equation (S3) with corresponding pKa, logP, and pH values.
# At each pH, the retention time (tR) of every analyte was determined for at least four different volume fractions (φ) of methanol. All the tR values of the solutes were obtained by averaging the results of at least three independent injections. The tR value was corrected using dual-point retention time correction (DP-RTC). For a detailed description of the process, refer to our previous work. For the different hydrophobicities of the studied compounds, benzene, toluene, and benzyl alcohol were used as anchor compounds in the DP-RTC method. The dead time t0 was determined using uracil. For each solute, the logarithm of k was plotted against φ, and logkw was obtained using the Equation (S1). The logD values of the model compounds were calculated using Equation (S3), and the logD–logkw models were established with Equation (S4). The statistical analysis for the regression model was accomplished using Origin 9.4.
# [6] = pH 10.0, calculated with literature logP, pKa and pH, Equation (S3)
# [7] = pH 7.0, methanol/20 mmol/L ammonium phosphate buffer, Welch Xtimate C18, 30 °C, 100% aqueous extrapolation
# [8] = pH 8.0, methanol/20 mmol/L ammonium phosphate buffer, Welch Xtimate C18, 30 °C, 100% aqueous extrapolation
# [9] = pH 9.0, methanol/20 mmol/L ammonium phosphate buffer, Welch Xtimate C18, 30 °C, 100% aqueous extrapolation
# [10] = pH 10.0, methanol/20 mmol/L ammonium phosphate buffer, Welch Xtimate C18, 30 °C, 100% aqueous extrapolation
# [11] = pH 7.0, calculated with literature logP, pKa and pH, Equation (S3)
# [12] = pH 8.0, calculated with literature logP, pKa and pH, Equation (S3)
# [13] = pH 9.0, calculated with literature logP, pKa and pH, Equation (S3)
Compound,logDpH 7.0 ([1]; pH 7),logDpH 8.0 ([1]; pH 8),logDpH 9.0 ([1]; pH 9),logDpH 10.0 ([1]; pH 10),logkw-pH 7.0 ([2]; pH 7),logkw-pH 8.0 ([2]; pH 8),logkw-pH 9.0 ([2]; pH 9),logkw-pH 10.0 ([2]; pH 10),B [3],logP ([4]; n-octanol/water),pKa1 [5],"logkw-pH 7.0 [2, 7]","logkw-pH 8.0 [2, 8]","logkw-pH 9.0 [2, 9]","logkw-pH 10.0 [2, 10]",also measured
Cc1ccc(N)cc1 [4-Methylaniline],1.40,1.41,1.41,1.41,1.50,1.53,1.54,1.58,0.94,1.41,5.08,–,–,–,–,–
"Cc1cc(C)nc(C)c1 [2,4,6-Trimethylpyridine]",1.44,1.91,2.00,–,–,–,–,–,0.63,2.01,–,2.06,2.23,2.30,2.34,"logDpH 10.0 [1, 6]: 2.01"
COc1ccccc1N [2-Methoxyaniline],0.95,0.95,0.95,0.95,1.38,1.41,1.42,1.49,0.99,0.95,4.53,–,–,–,–,–
"CN(C)c1ccccc1 [N, N-Dimethylaniline]",–,–,–,–,2.18,2.37,2.39,2.44,0.96,–,5.07,–,–,–,–,–
Cc1ccncc1 [4-Methylpyridine],1.29,1.33,1.33,1.33,–,–,–,–,0.63,1.33,5.99,1.40,1.41,1.44,1.46,–
"Cc1ccnc(C)c1 [2,4-Dimethylpyridine]",–,–,–,–,–,–,–,–,0.63,1.65,6.58,1.76,1.85,1.88,1.96,"logDpH 7.0 [1, 11]: 1.51; logDpH 8.0 [1, 12]: 1.63; logDpH 9.0 [1, 13]: 1.65; logDpH 10.0 [1, 6]: 1.65"
CCc1ccccc1N [2-Ethylaniline],1.63,1.67,1.67,1.67,–,–,–,–,0.96,–,–,1.87,1.94,1.95,1.95,chromatographic logD (physchem; pH 7): 1.79; chromatographic logD (physchem; pH 8): 1.77; chromatographic logD (physchem; pH 9): 1.75; chromatographic logD (physchem; pH 10): 1.71
Cc1ccccc1N [2-Methylaniline],1.40,1.40,1.40,1.40,1.47,1.44,1.45,1.49,0.97,1.40,–,–,–,–,–,–
CCOc1ccc(N)cc1 [4-Ethoxyaniline],1.23,1.24,1.24,1.24,1.45,1.49,1.50,1.60,0.95,1.24,–,–,–,–,–,–
"CCN(CC)c1ccccc1 [N, N-Diethylaniline]",3.17,3.29,3.31,3.31,3.20,3.44,3.47,3.54,0.95,3.31,6.57,–,–,–,–,–
c1ccc(-c2ccncc2)cc1 [4-Phenylpyridine],2.58,2.59,2.59,2.59,2.66,2.81,2.84,2.80,1.38,2.59,5.45,–,–,–,–,–
NCc1ccccc1 [Benzylamine],–,–,–,–,–,–,–,–,–,–,9.35,0.36,0.49,1.05,1.42,–
"Cc1ccc(N)c(C)c1 [2,4-Dimethylaniline]",1.68,1.68,1.68,1.68,1.92,1.98,2.00,2.04,0.95,1.68,4.70,–,–,–,–,–
Cc1ccnc(N)c1 [2-Amino-4-methylpyridine],–,–,–,–,–,–,–,–,0.95,0.89,7.38,1.00,1.16,1.28,1.32,"logDpH 7.0 [1, 11]: 0.36; logDpH 8.0 [1, 12]: 0.80; logDpH 9.0 [1, 13]: 0.88; logDpH 10.0 [1, 6]: 0.89"
"Nc1ccc(N)cc1 [1,4-Benzenediamine]",−0.38,−0.31,−0.30,−0.30,−0.39,−0.35,−0.17,−0.04,1.30,−0.30,6.31,–,–,–,–,pKa2 [5]: 2.97
CC(C)c1ccc(N)cc1 [4-Isopropylaniline],–,–,–,–,–,–,–,–,0.92,2.23,4.85,2.42,2.57,2.59,2.65,"logDpH 7.0 [1, 11]: 2.23; logDpH 8.0 [1, 12]: 2.23; logDpH 9.0 [1, 13]: 2.23; logDpH 10.0 [1, 6]: 2.23"
CCc1ccccn1 [2-Ethylpyridine],–,–,–,–,–,–,–,–,0.61,1.67,–,1.74,1.79,1.80,1.90,"logDpH 7.0 [1, 11]: 2.05; logDpH 8.0 [1, 12]: 2.05; logDpH 9.0 [1, 13]: 2.05; logDpH 10.0 [1, 6]: 2.05; chromatographic logD (physchem; IS-RPLC retention (logkw), pH 7): 1.62; chromatographic logD (physchem; IS-RPLC retention (logkw), pH 8): 1.62; chromatographic logD (physchem; IS-RPLC retention (logkw), pH 9): 1.6; chromatographic logD (physchem; IS-RPLC retention (logkw), pH 10): 1.65; logP ([4]; Table 4, verification compounds): 1.67"
